Assay results published in PubChem BioAssay (NCI).
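Protocol summary: plate cells (96-well), add compound at 5 concentrations, incubate 48 h, interpolate endpoints linearly. The concentration for full growth arrest is given as TGI.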

Key:
Test in all cases: growth of human tumour cells (NCI), 48 h
[1] = test system: UO-31 renal
[2] = test system: PC-3 prostate
[3] = test system: SNB-19 CNS
[4] = test system: COLO 205 colon
[5] = test system: NCI-H522 lung
[6] = test system: TK-10 renal
[7] = test system: LOX IMVI melanoma
[8] = test system: HCT-116 colon
[9] = test system: MDA-MB-231 breast
[10] = test system: SN12C renal
[11] = test system: CAKI-1 renal
[12] = test system: SNB-75 CNS
[13] = test system: KM12 colon
[14] = test system: MDA-MB-435
[15] = test system: SF-539 CNS
[16] = test system: NCI-H23 lung
[17] = test system: RXF 393 renal
[18] = test system: HOP-62 NSCLC
[19] = test system: MALME-3M melanoma
[20] = test system: ACHN renal
[21] = test system: RPMI-8226 leukemia
[22] = test system: A498 renal
[23] = test system: SK-OV-3 ovarian
[24] = test system: SW-620 colon
[25] = test system: OVCAR-8 ovarian
[26] = test system: M14 melanoma
[27] = test system: SF-268 CNS
[28] = test system: HL-60(TB) leukemia
[29] = test system: MDA-N
[30] = test system: EKVX NSCLC
[31] = test system: CCRF-CEM leukemia
[32] = test system: SR leukemia
[33] = test system: MCF7 breast
[34] = test system: OVCAR-5 ovarian
[35] = test system: OVCAR-4 ovarian
[36] = test system: NCI-H226 lung
[37] = test system: K-562 leukemia
[38] = test system: OVCAR-3 ovarian
[39] = test system: DU-145 prostate
[40] = test system: HOP-92 NSCLC
[41] = test system: UACC-257 melanoma
[42] = test system: SK-MEL-5 melanoma
[43] = test system: SF-295 CNS
[44] = test system: T-47D breast
[45] = test system: NCI-H460 lung
[46] = test system: IGROV1 ovarian
[47] = test system: 786-0 renal
[48] = test system: SK-MEL-28 melanoma
[49] = test system: HS 578T breast
[50] = test system: HT29 colon
[51] = test system: MOLT-4 leukemia
[52] = test system: NCI/ADR-RES ovarian
[53] = test system: A549 NSCLC
[54] = test system: UACC-62 melanoma
[55] = test system: SK-MEL-2 melanoma
[56] = test system: HCT-15 colon
[57] = test system: U251 CNS
[58] = test system: HCC-2998 colon

CC(CO)CCNc1ncnc2c1ncn2CCC(=O)O (centres undefined)
TGI [1]: > 100 µM
TGI [2]: > 100 µM
TGI [3]: > 100 µM
TGI [4]: > 100 µM
TGI [5]: > 100 µM
TGI [6]: > 100 µM
TGI [7]: > 100 µM
TGI [8]: > 100 µM
TGI [9]: > 100 µM
TGI [10]: > 100 µM
TGI [11]: > 100 µM
TGI [12]: > 100 µM
TGI [13]: > 100 µM
TGI [14]: > 100 µM
TGI [15]: > 100 µM
TGI [16]: > 100 µM
TGI [17]: > 100 µM
TGI [18]: > 100 µM
TGI [19]: > 100 µM
TGI [20]: > 100 µM
TGI [21]: > 100 µM
TGI [22]: > 100 µM
TGI [23]: > 100 µM
TGI [24]: > 100 µM
TGI [25]: > 100 µM
TGI [26]: > 100 µM
TGI [27]: > 100 µM
TGI [28]: > 100 µM
TGI [29]: > 100 µM
TGI [30]: > 100 µM
TGI [31]: > 100 µM
TGI [32]: > 100 µM
TGI [33]: > 100 µM
TGI [34]: > 100 µM
TGI [35]: > 100 µM
TGI [36]: > 100 µM
TGI [37]: > 100 µM
TGI [38]: > 100 µM
TGI [39]: > 100 µM
TGI [40]: > 100 µM
TGI [41]: > 100 µM
TGI [42]: > 100 µM
TGI [43]: > 100 µM
TGI [44]: > 100 µM
TGI [45]: > 100 µM
TGI [46]: > 100 µM
TGI [47]: > 100 µM
TGI [48]: > 100 µM
TGI [49]: > 100 µM
TGI [50]: > 100 µM
TGI [51]: > 100 µM
TGI [52]: > 100 µM
TGI [53]: > 100 µM
TGI [54]: > 100 µM

COc1ccc(N(CN2C(=O)CCC2OC)C(C)=O)cc1 (centres undefined)
TGI [1]: > 100 µM
TGI [2]: > 100 µM
TGI [3]: > 100 µM
TGI [4]: > 100 µM
TGI [5]: > 100 µM
TGI [6]: > 100 µM
TGI [7]: > 100 µM
TGI [8]: > 100 µM
TGI [9]: > 100 µM
TGI [10]: > 100 µM
TGI [11]: > 100 µM
TGI [12]: > 100 µM
TGI [55]: > 100 µM
TGI [56]: > 100 µM
TGI [13]: > 100 µM
TGI [14]: > 100 µM
TGI [15]: > 100 µM
TGI [16]: > 100 µM
TGI [17]: > 100 µM
TGI [18]: > 100 µM
TGI [19]: > 100 µM
TGI [20]: > 100 µM
TGI [21]: > 100 µM
TGI [22]: > 100 µM
TGI [23]: > 100 µM
TGI [24]: > 100 µM
TGI [25]: > 100 µM
TGI [26]: > 100 µM
TGI [27]: > 100 µM
TGI [29]: > 100 µM
TGI [30]: > 100 µM
TGI [31]: > 100 µM
TGI [32]: > 100 µM
TGI [33]: > 100 µM
TGI [34]: > 100 µM
TGI [35]: > 100 µM
TGI [36]: > 100 µM
TGI [37]: > 100 µM
TGI [38]: > 100 µM
TGI [39]: > 100 µM
TGI [40]: > 100 µM
TGI [41]: > 100 µM
TGI [42]: > 100 µM
TGI [57]: > 100 µM
TGI [43]: > 100 µM
TGI [44]: > 100 µM
TGI [45]: > 100 µM
TGI [46]: > 100 µM
TGI [47]: > 100 µM
TGI [48]: > 100 µM
TGI [49]: > 100 µM
TGI [50]: > 100 µM
TGI [51]: > 100 µM
TGI [52]: > 100 µM
TGI [53]: > 100 µM
TGI [54]: > 100 µM

Cc1oc2c(cc(O)c3ccccc32)c2cccc1-2
TGI [2]: > 100 µM
TGI [3]: > 100 µM
TGI [4]: > 100 µM
TGI [6]: > 100 µM
TGI [7]: > 100 µM
TGI [8]: > 100 µM
TGI [9]: 34.8 µM
TGI [10]: > 100 µM
TGI [11]: > 100 µM
TGI [12]: > 100 µM
TGI [56]: > 100 µM
TGI [13]: > 100 µM
TGI [14]: > 100 µM
TGI [15]: > 100 µM
TGI [58]: > 100 µM
TGI [16]: > 100 µM
TGI [18]: > 100 µM
TGI [19]: > 100 µM
TGI [20]: > 100 µM
TGI [21]: > 100 µM
TGI [22]: > 100 µM
TGI [23]: > 100 µM
TGI [24]: > 100 µM
TGI [25]: > 100 µM
TGI [26]: 76.7 µM
TGI [27]: > 100 µM
TGI [28]: > 100 µM
TGI [29]: > 100 µM
TGI [30]: > 100 µM
TGI [31]: > 100 µM
TGI [32]: > 100 µM
TGI [33]: > 100 µM
TGI [34]: > 100 µM
TGI [38]: > 100 µM
TGI [39]: > 100 µM
TGI [40]: > 100 µM
TGI [41]: > 100 µM
TGI [42]: > 100 µM
TGI [57]: > 100 µM
TGI [43]: > 100 µM
TGI [44]: > 100 µM
TGI [45]: > 100 µM
TGI [47]: > 100 µM
TGI [48]: > 100 µM
TGI [49]: > 100 µM
TGI [50]: > 100 µM
TGI [51]: > 100 µM
TGI [52]: > 100 µM
TGI [53]: > 100 µM
